According to patent US20040142888A1, “Modulators of RabGGT and methods of use thereof” (priority 2002, published 2004):

Tested on: HCT116 cells
Assay: 3H-thymidine incorporation (proliferation) assay in HCT116 cells after siRNA treatment against RabGGT subunits
Assay type: cell-based, human
Parameters: concentration or dose not given beside the values
Conditions: 72 hours after siRNA/Lipofectamine 2000 treatment, average of three replicates
Protocol: HCT-116 human colon tumor cells obtained from the ATCC were grown in RPMI culture medium supplemented with 10% heat inactivated FBS, 1× penicillin/streptomycin, and 25 mM HEPES, in an incubator maintained at 37° C. with CO2 at 6% and humidity at 95%. HCT116 cells were plated in 96 well plates at 2000 cells/100 μl media per well and incubated for 24 hours before RNAi treatment. For treatment, a 2× solution of Lipofectamine 2000/siRNA complexes was generated for each individual siRNA as follows. The siRNA oligonucleotides (Xeragon; Huntsville Ala.) were diluted to a final concentration of 1 μM in Optimem serum-free media (Invitrogen; Carlsbad, Calif.) and incubated for 5 minutes at room temperature. The Lipofectamine 2000 reagent (Invitrogen; Carlsbad, Calif.) was diluted to 10 μg/ml in Optimem serum-free media and incubated for 5 minutes at room temperature. Equal volumes of the 1 μM siRNA oligonucleotides and the 10 μg/ml Lipofectamine 2000 were mixed together, giving a 5× stock of siRNA/Lipofectamine 2000 complexes. After incubation for 20 minutes at room temperature, 1.5 volumes of RPMI medium containing 10% heat inactivated FBS was added to the 5× stock, resulting in a 2× stock of siRNA/Lipofectamine 2000 complexes. For RNAi treatment, 100 μof the 2× stock of siRNA/Lipofectamine 2000 complexes was added to each well containing HCT116 cells, to give a final concentration of 1× siRNA/Lipofectamine 2000 complexes. Cells were incubated for 72 hours prior to the proliferation assay. Three replicates were performed for each siRNA treatment.
The effect of RNAi treatment directed against RabGGT subunits on cellular proliferation was assayed using a 3H-thymidine incorporation assay. The principle of this assay is as follows: During S-phase of the cell cycle, cells incorporate thymidine into the new strand of genomic DNA. Tritiated thymidine can be added to the culture medium and will be incorporated into genomic DNA in proportion to the number of rounds of DNA synthesis that occur. Incorporation can be quantified following lysis of the cells and removal of unincorporated nucleotides. RNAi-treated cells prepared as described above were assayed for 3H-thymidine uptake as follows. The cells were pulsed with 3H-thymidine by addition of 20 μl of a 44 μCi/ml solution of 3H-thymidine in RPMI to each well, to obtain a final concentration of 3H-thymidine of 4 μCi/ml. After incubation for 3 h at 37° C., the medium was removed and 50 μl of 0.25% trypsin in phosphate buffered saline (140 mM NaCl, 2.7 mM KCl, 10 mM Na2HPO4 and 1.8 mM KH2PO4, pH 7.4) was added. After 10 minutes, the contents of the wells were harvested onto a 96-well GF/C filter plate (Whatman; Clifton N.J.) using a Hewlett Packard Filtermate. The filter plate was washed 10 times with distilled water, then left to dry overnight. After the addition of 50 μl of Microscint-20 scintillation fluid (Perkin Elmer; Boston, Mass.) per well, the filter plates were sealed and the amount of radioactivity retained on the filter was determined by scintillation counting. The average of the three replicate samples is reported.

Substance | 3H-thy incorp. % of control [%]
Alpha-3: siRNA against human RabGGT-alpha, coding bases 1309-1332, SEQ ID NO:05 / NO:06 (chain 1 GAUGGAGUAUGCCGAGGUGTT; chain 2 CACCUCGGCAUACUCCAUCTT; chemistry not given here) | 63
Beta-1: siRNA against human RabGGT-beta, coding bases 493-516, SEQ ID NO:07 / NO:08 (chain 1 CUUUGGCUUUGUUGGGGAATT; chain 2 UUCCCCAACAAAGCCAAAGTT; chemistry not given here) | 77
Beta-2: siRNA against human RabGGT-beta, coding bases 662-685, SEQ ID NO:09 / NO:10 (chain 1 CGACAAUUACCCUCAGGCGTT; chain 2 CGCCUGAGGGUAAUUGUCGTT; chemistry not given here) | 39
Beta-3: siRNA against human RabGGT-beta, coding bases 812-835, SEQ ID NO:11 / NO:12 (chain 1 GAUGAAGAAACGGGGGGAUTT; chain 2 AUCCCCCCGUUUCUUCAUCTT; chemistry not given here) | 36
